Measurements reported in publication PMC3499368, “Evolution of Minimal Specificity and Promiscuity in Steroid Hormone Receptors” (PLoS Genetics, 2012).
Like-named read-outs stand apart in the source and are kept apart here.

Key:
Format in all cases: cell-based
[1] = tested on: AncSR2-LBD; test: luciferase reporter gene assay, Gal4-DBD fusion of AncSR2-LBD in CHO-K1 cells, activation; conditions: for EC50: AncSR2, representative dose activation curves (Fig. S4) and Table S5 sections c-i; for activation of AncSR2 (in words): luciferase reporter
Excerpt: To experimentally test these hypotheses, we synthesized cDNAs for the AncSR1 and AncSR2 LBD protein sequences, expressed them as Gal4-DBD fusion constructs, and characterized their sensitivity to hormones using luciferase reporter gene assays. […] It was unresponsive to a broad array of androgens, progestagens, and corticosteroids, as well as cholesterol (Figure 2A, Figure S3).
For AncSR2, we identified all plausible alternate reconstructions (those with posterior probability >0.20 excluding biochemically similar K/R, D/E, S/T, and I/L differences) and introduced each alternate state individually into the AncSR2 background using the Quikchange Mutagenesis kit (Stratagene), verified clones by sequencing, and repeated the activation assays with each version of AncSR2 (Figure S6). The ML AncSR2 sequence reconstructed on the ML tree had high baseline activation in the absence of ligand; this phenotype is almost certainly an artifact, because constitutive baseline activity is not present in any of AncSR2's extant descendants; it is well-established that some amino acid replacements can cause nuclear receptors to become constitutive by marginally stabilizing the active conformation in the absence of hormone. […] The “constitutive” Leu79 state is weakly supported on the ML tree (PP = 0.59), and has no support (PP = 0.00) on the phylogeny that is most parsimonious in terms of gene duplications and losses; in contrast, the “non-constitutive” state Met79 has PP = 0.41 on the ML tree and PP = 1.00 on the rearranged gene duplication/loss tree (Figure S12, Table S8). The AncSR2 sequence used for all experiments reported in the text therefore contains state Met79. The other alternate reconstructions were then reintroduced into this AncSR2 sequence: none qualitatively changed the receptor's sensitivity to the various classes of steroid hormones, except for A171V, which conferred constitutive activity (Figure S6).

[2] = tested on: AncSR1-LBD; test: luciferase reporter gene assay, Gal4-DBD fusion of AncSR1-LBD in CHO-K1 cells, activation; conditions: for activation of AncSR1 (in words): luciferase reporter; for activation (in words): fold activation at 10^-6 M, Fig. S5C
Excerpt: To experimentally test these hypotheses, we synthesized cDNAs for the AncSR1 and AncSR2 LBD protein sequences, expressed them as Gal4-DBD fusion constructs, and characterized their sensitivity to hormones using luciferase reporter gene assays.

[3] = tested on: AncSR1_Alt2; test: luciferase reporter assay, alternative reconstruction AncSR1_Alt2; conditions: for activation (in words): Alt2, fold activation at 10^-6 M, Fig. S5C; for EC50: Alt2, Fig. S5B
Excerpt: (§1) To determine the robustness of functional inferences to statistical uncertainty in the reconstruction of AncSR1 and AncSR2, we used two approaches. AncSR1 had too many ambiguously reconstructed sites to examine each such residue individually, so we computationally sampled from the posterior probability distribution of reconstructed amino acid states to generate a cloud of possible ancestral sequences, each harboring a large number of alternate states. Specifically, we generated 1,000,000 possible ancestral sequences by sampling from the posterior probability distribution of states at each site. […] We synthesized these five radically alternative ancestral reconstructions de novo and repeated the functional assays.
(§2) A) Distribution of posterior probabilities of 1 million protein sequences assembled by sampling amino acid states at each site from the posterior probability distribution for AncSR1 LBD. The ML reconstruction (AncSR1-ML) and the five alternative sequences with the highest posterior probability (Alt1-Alt5) in the 1 million samples are […]
(§3) The column height and error bars indicate the mean and SEM of three independent experiments, respectively. […]

[4] = tested on: AncSR1_Alt5; test: luciferase reporter assay, alternative reconstruction AncSR1_Alt5; conditions: for activation (in words): Alt5, fold activation at 10^-6 M, Fig. S5C; for EC50: Alt5, Fig. S5B
Excerpt: as §1, §2, §3

[5] = tested on: AncSR1_Alt3; test: luciferase reporter assay, alternative reconstruction AncSR1_Alt3; conditions: for activation (in words): Alt3, fold activation at 10^-6 M, Fig. S5C; for EC50: Alt3, Fig. S5B
Excerpt: as §1, §2, §3

[6] = tested on: AncSR1_Alt1; test: luciferase reporter assay, alternative reconstruction AncSR1_Alt1; conditions: for activation (in words): Alt1, fold activation at 10^-6 M, Fig. S5C; for EC50: Alt1, Fig. S5B
Excerpt: as §1, §2, §3

[7] = tested on: AncSR1_Alt4; test: luciferase reporter assay, alternative reconstruction AncSR1_Alt4; conditions: for activation (in words): Alt4, fold activation at 10^-6 M, Fig. S5C; for EC50: Alt4, Fig. S5B
Excerpt: as §1, §2, §3

[8] = AncSR1, Table S5 section b, pairs H1/H2: 18/19, 22/20, 8/23, listed as given under Hormone 1
[9] = AncSR1, representative dose activation curves (Fig. S3) and Table S5 section b
[10] = AncSR2, Table S5 section e, pairs H1/H2: 18/17, 9/6, 15/13, listed as given under Hormone 1
[11] = AncSR2, Table S5 section i, pairs H1/H2: 8/6, 17/13, 18/15, listed as given under Hormone 1
[12] = AncSR2, Table S5 section h, pairs H1/H2: 3/4, 6/7, listed as given under Hormone 1
[13] = AncSR2, Table S5 section d, pairs H1/H2: 13/6, 17/8, 15/9, 16/10, 19/23, listed as given under Hormone 1

C[C@@H](O)[C@H]1CC[C@H]2[C@@H]3CCC4=CC(=O)CC[C@]4(C)[C@H]3CC[C@]12C [20β hydroxyprogesterone]
EC50 ([1]; read-out: EC50): 10 nM

CC/C(=C(/CC)c1ccc(O)cc1)c1ccc(O)cc1 [Diethylstilbestrol]
activation of AncSR1 (in words) [2]: activated
activation of AncSR2 (in words) [1]: not activated

O=c1c(-c2ccc(O)cc2)coc2cc(O)cc(O)c12 [Genistein]
activation of AncSR1 (in words) [2]: activated
activation of AncSR2 (in words) [1]: not activated

C[C@]12CCC(=O)C=C1CC[C@@H]1[C@@H]2[C@@H](O)C[C@]2(C=O)[C@@H](C(=O)CO)CC[C@@H]12 [aldosterone]
EC50 ([1]; read-out: EC50): 1.9 nM

CC12CCC3C4CCC(O)C=C4CCC3C1CCC2O (centres unmarked) [bolandiol]
Ratio H1/H2 of EC50, preference for aromatized A-ring [2, 8]: 36.02
Ratio H2/H1 of EC50, preference for aromatized A-ring [2, 8]: 0.03
EC50 [2, 9]: 1760 nM
Ratio H1/H2 of EC50, preference for 3-hydroxy vs. 3-keto group [1, 10]: 0.29
Ratio H2/H1 of EC50, preference for 3-hydroxy vs. 3-keto group [1, 10]: 3.45
Ratio H1/H2 of EC50, preference for 19-H vs. 19-methyl group [1, 11]: 0.08
Ratio H2/H1 of EC50, preference for 19-H vs. 19-methyl group [1, 11]: 13.10
EC50 [1]: 20 nM

CC(C)CCC[C@@H](C)[C@H]1CC[C@H]2[C@@H]3CC=C4C[C@@H](O)CC[C@]4(C)[C@H]3CC[C@]12C [cholesterol]
activation of AncSR1 (in words) [2]: unresponsive
activation of AncSR2 (in words) [1]: completely unresponsive

C[C@]12C[C@H](O)[C@H]3[C@@H](CCC4=CC(=O)CC[C@@]43C)[C@@H]1CC[C@@H]2C(=O)CO [corticosterone]
Ratio H1/H2 of EC50, preference for 17a-H group vs. -OH group [1, 12]: 0.03
Ratio H2/H1 of EC50, preference for 17a-H group vs. -OH group [1, 12]: 31.61
EC50 ([1]; read-out: EC50): 0.31 nM

C[C@]12CCC(=O)C[C@@H]1CC[C@@H]1[C@@H]2CC[C@]2(C)[C@@H](O)CC[C@@H]12 [dihydrotestosterone]
activation (in words) ([2]; AncSR1-ML): none are activated
activation (in words) [3]: none are activated
activation (in words) [4]: none are activated
activation (in words) [5]: none are activated
activation (in words) [6]: none are activated
EC50 [1]: 172 nM
activation (in words) [7]: none are activated

C[C@]12CC[C@@H]3c4ccc(O)cc4CC[C@H]3[C@@H]1C[C@@H](O)[C@@H]2O [estriol]
EC50 [2, 9]: 970 nM
EC50 ([2]; AncSR1-ML, Fig. S5B): 974 nM
EC50 [3]: 2220 nM
EC50 [4]: 390 nM
EC50 [5]: 149 nM
EC50 [6]: 322 nM
EC50 [7]: 2010 nM

C[C@]12CC[C@@H]3c4ccc(O)cc4CC[C@H]3[C@@H]1CCC2=O [estrone]
EC50 [2, 9]: 69 nM
EC50 ([2]; AncSR1-ML, Fig. S5B): 208 nM
EC50 [3]: 3000 nM
EC50 [4]: 223 nM
EC50 [5]: 42 nM
EC50 [6]: 133 nM
EC50 [7]: 844 nM

CC(=O)[C@H]1CC[C@H]2[C@@H]3CCC4=CC(=O)CC[C@]4(C)[C@H]3CC[C@]12C [progesterone]
activation (in words) ([2]; AncSR1-ML): none are activated
activation (in words) [3]: none are activated
activation (in words) [4]: none are activated
activation (in words) [5]: none are activated
activation (in words) [6]: none are activated
EC50 ([1]; read-out: EC50): 5.5 nM
activation (in words) [7]: none are activated

C[C@]12CC[C@H]3[C@@H](CCC4=CC(=O)CC[C@@]43C)[C@@H]1CC[C@@H]2O [testosterone]
activation (in words) ([2]; AncSR1-ML): none are activated
activation (in words) [3]: none are activated
activation (in words) [4]: none are activated
activation (in words) [5]: none are activated
activation (in words) [6]: none are activated
Ratio H1/H2 of EC50, preference for 17-acetyl vs. 17-hydroxy group [1, 13]: 21.09
Ratio H2/H1 of EC50, preference for 17-acetyl vs. 17-hydroxy group [1, 13]: 0.05
EC50 [1]: 116 nM
activation (in words) [7]: none are activated
